Data from patent US4794114A, “Inhibition of interleukin-1 production by monocytes and/or macrophages” (SmithKline Beckman Corporation, priority 1987, dated 1988).
Like-named read-outs stand apart in the source and are kept apart here.

Assays:
PGE2 = assay: in vitro prostaglandin (PGE2) synthesis by LPS-stimulated human monocytes, RIA; format: cell-based; conditions: Homo sapiens, Monocyte, read-out: % Inhibition PGE2
Protocol: (§1) Bacterial lipopolysaccharide (LPS) was used to induce IL-1 production by human peripheral blood monocytes. IL-1 activity was measured by its ability to stimulate a Interleukin 2 (IL-2) producing cell line (EL-4) to secrete IL-2, in concert with A23187 ionophore, according to the method of Simon et al., J. Immunol. Methods, 84, 85, (1985). Human peripheral blood monocytes were isolated and purified from either fresh blood preparations from volunteer donors, or from blood Bank buffy coats, according to the procedure of Colotta et al., J. Immunol., 132, 936 (1984). 1×10^6 of such monocytes are plated in 24-well plates at a concentration of 2 million/ml per well. The cells were allowed to adhere for 2 hours, after which time non-adherent cells were removed by gentle washing. Test compounds were then added to the cells for 1 hour (hr) before the addition of lipopolysaccharide (10 ng/ml unless otherwise noted), and the cultures were incubated at 37° C. for an additional 24 hours. At the end of the incubation period, culture supernatants were removed and clarified of cells and all debris. Culture supernatants were immediately assayed for IL-1 biological activity as well as prostaglandin and/or leukotriene concentrations by radioimmunoassay.
^(c) PGE2 was assayed using an RIA kit.

[1] = test system: IL-1 production by human monocytes; conditions: Lipsky, Amer. J. Med. 75, Supp. 1A, 19 (1983); cited from earlier work
[2] = test system: IL-1 production by human monocytes; assay: in vitro IL-1 production by LPS-stimulated human peripheral blood monocytes (EL-4 readout); format: cell-based; conditions: for IC50: 1 ng/ml LPS, 1 hr pretreatment
Protocol: The effects of antiinflammatory/antiarthritic drugs of different classes, including Compound 1 on the in vitro production of IL-1 by human monocytes was examined.
as §1
^(a) All compounds, except chloroquine, were dissolved in absolute
ethanol at 10^-2 M, which was subsequently diluted further in tissue
assay system at doses tested. Furthermore, test samples were dialyzed
prior to testing in the IL1 assay.
In order to elucidate the mechanism by which Compound 1 mediates its anti-inflammatory activity, the ability of this compound and two closely related analog metabolites, (i.e., the analogs of Compound 1 wherein X is S(0)n and n is 1 or 2) to inhibit human IL-1 production in vitro was evaluated according to the method of Example 1. Briefly, 1×10^6 human peripheral blood monocytes were plated in 24-well plates and allowed to adhere for 1 hr at 37° C. The above compounds were added to a final concentration of 10^-5 M to 10^-8 M. The monocytes were stimulated to produce IL-1 with 1 ng/ml LPS after a 1 hr pretreatment of the cells with the respective compounds.
The inhibitory effect of additional compounds of Formula (I) on the in vitro production of IL-1 production of IL-1 by human monocytes was determined according to the procedure of Examples 1 and 2.

[3] = test system: endotoxin shock in C57B1/6 mice; format: in vivo, mouse; conditions: mouse, in vivo
Protocol: (§2) Mice are very resistant to the lethal effects of bacterial lipopolysaccharides (LPS). D-Galactosamine (D-GALN) induces a high degree of sensitization to the lethal effects of LPS in mice and other experimental animals. [See, Galanos et al., Proc. Natl. Acad Sci. USA., 76, 5939 (1979)]. In mice, depending on the strain and age, the sensitivity to endotoxin can be increased many thousand-fold.
A number of preliminary experiments were carried out to establish this model of lethal endotoxin shock.

C57B1/6 mice = assay: lethality of LPS in D-galactosamine treated C57B1/6 mice; format: in vivo, mouse; conditions: for Lethality, No. of Death/Total No.: D-Galactosamine 500 mg/kg i.v.
Protocol: as §2
A number of preliminary experiments were carried out to establish this model of lethal endotoxin shock. LPS concentrations of up to 1 mg/mouse are not lethal in C57B1/6 mice. When injected i.v. with D-GALN (500 mg/kg), however, the sensitivity increases so that 0.1 ug becomes a lethal dose (Table 5). The concentration of D-GALN required to obtain this effect is 400-500 mg/kg.
All compounds were administered i.v.

[4] = test system: adjuvant-induced arthritis in the rat; assay: adjuvant-induced arthritis in the rat: right leg paw edema; format: in vivo; conditions: mg/kg: Compound 1 60, indomethacin 2.0, prednisolone 10, methotrexate 0.3, D-penicillamine 50
Protocol: (§3) Adjuvant-induced arthritis in the rat is a model of systemic inflammation with characteristics similar to rheumatoid arthritis in man. […] This model was employed to assess the effect of Compound 1 in vivo on this elevated IL-1 production. Briefly, rats were injected on day 0 with Freund's complete adjuvant in the right hind leg. Drugs were prepared as a suspension in tragacanth and administered daily per os either prophylactically (days 1 to 16) or therapeutically in a short-term modality (days 14 to 16). In all cases, final administration of drug occurred at 3 hours prior to sacrifice. Spleens were removed from these rats and the adherent cells were assessed for their ability to produce IL-1 in vitro in response to stimulation by LPS.
(§4) PROPHYLACTIC TREATMENT: Drugs were administered daily p.o. as a suspensio
(§5) in tragacanth from day 1 to day 16. Final dose given 3 hrs before
(§6) TREATMENT: Drugs were administered daily p.o. as above from
(§7) day 14 to day 16. Final dose given 3 hrs before sacrifice.
(§8) ***P < 0.01 Indomethacin 2.0 mg/kg
(§9) **P < 0.05 Compound 1 60 mg/kg
(§10) *P < 0.10 Prednisolone 10 mg/kg
(§11) D-Penicillamine 50 mg/kg

[5] = test system: IL-1 production by splenic adherent cells; assay: adjuvant-induced arthritis in the rat: IL-1 production by LPS-stimulated splenic adherent cells; format: in vivo; conditions: for IL-1 Production (splenic adherent cells), % normal control: mg/kg: Compound 1 60, indomethacin 2.0, prednisolone 10, methotrexate 0.3, D-penicillamine 50
Protocol: as §3, §4, §5, §6, §7, §8, §9, §10, §11

splenic adherent cells = assay: adjuvant-induced arthritis in the rat: % splenic adherent cells; format: in vivo; conditions: mg/kg: Compound 1 60, indomethacin 2.0, prednisolone 10, methotrexate 0.3, D-penicillamine 50
Protocol: as §3, §4, §5, §6, §7, §8, §9, §10, §11

[6] = Homo sapiens, Monocyte, read-out: % Inhibition IL-1
[7] = Homo sapiens, Monocyte, 10^-6 M, Table 3, read-out: % Inhibition @ 10^-6 M
[8] = prophylactic, daily p.o. days 1-16
[9] = therapeutic, daily p.o. days 14-16

CCN(CC)CCCC(C)Nc1ccnc2cc(Cl)ccc12 (stereo not shown) [Chloroquine]
inhibition at 0.1 µM (PGE2): 0% | inhibition at 1 µM (PGE2): 0% | inhibition at 10 µM (PGE2): 84% | inhibition of IL-1 production, literature [1]: inhibit IL-1 production | inhibition at 0.1 µM [2, 6]: 36% | inhibition at 1 µM [2, 6]: 46% | inhibition at 10 µM [2, 6]: 89% | inhibition of IL-1 production ([2]; doses one or two logs higher than Compound 1): only marginally active

[O-][S+]1CCn2c1nc(-c1ccc(F)cc1)c2-c1ccncc1 (stereo not shown) [Compound 2]
IC50 ([2]; Homo sapiens, Monocyte): 800 nM | inhibition at 1 µM [2, 7]: 56%

O=S1(=O)CCn2c1nc(-c1ccc(F)cc1)c2-c1ccncc1 [Compound 3]
IC50 ([2]; Homo sapiens, Monocyte): 610 nM | inhibition at 1 µM [2, 7]: 54%

Fc1ccc(-c2c(-c3ccncc3)nc3n2CCS3)cc1 [Compound 4]
inhibition at 1 µM [2, 7]: 46%

Fc1ccc(-c2nc3n(c2-c2ccncc2)CCC3)cc1 [Compound 5]
protection from lethal effects of LPS/GALN [3]: protective effects | inhibition at 1 µM [2, 7]: 78%

COc1ccc(-c2nc3n(c2-c2ccncc2)CCS3)cc1 [Compound 6]
inhibition at 1 µM [2, 7]: 64%

COc1ccc(-c2nc3n(c2-c2ccncc2)CCC3)cc1 [Compound 7]
inhibition at 1 µM [2, 7]: 40%

COc1ccc(-c2nc3n(c2-c2ccncc2)CCCC3)cc1 [Compound 8]
inhibition at 1 µM [2, 7]: 30%

N[C@H]1C(O)O[C@H](CO)[C@H](O)[C@@H]1O (stereo partly drawn) [D-Galactosamine]
Lethality, No. of Death/Total No. (C57B1/6 mice; 6 Hr.): 0/10 | Lethality, No. of Death/Total No. (C57B1/6 mice; 24 Hr.): 0/10 | D-GALN concentration required to sensitize to LPS (C57B1/6 mice; with LPS, i.v.): 400 to 500 mg/kg

CC(C)(S)[C@@H](N)C(=O)O [D-PENICILLAMINE, d-penicillamine]
Right leg paw edema, % normal control [4, 8]: 184 ± 20 % normal control | Right leg paw edema, % normal control [4, 9]: 191 ± 13 % normal control | IL-1 Production (splenic adherent cells), % normal control [5, 8]: 336 ± 170 % normal control | IL-1 Production (splenic adherent cells), % normal control [5, 9]: 374 % normal control | effect in adjuvant arthritic rats ([5]; therapeutic, short-term treatment): no effect | % Adherent Cells (splenic), % normal control (splenic adherent cells; [8]): 372 ± 117 % normal control | % Adherent Cells (splenic), % normal control (splenic adherent cells; [9]): 217 ± 6 % normal control
